Among the data in PubChem BioAssay (NCI) are GI50 and TGI values, retold here.

What is called GI50 is the concentration at which growth is held to half of that of the control. The term TGI denotes the concentration at which net growth stops. A higher TGI goes with less potent growth arrest.

Among the test systems are EKVX NSCLC; NCI-H522 lung; NCI/ADR-RES ovarian; OVCAR-3 ovarian; OVCAR-5 ovarian; OVCAR-8 ovarian; PC-3 prostate; SF-295 CNS; SK-OV-3 ovarian; IGROV1 ovarian.
Holding throughout (test): DTP human tumour cell line panel, 48 h

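Cells were grown in 96-well plates and exposed to each compound for 48 hours at five concentrations; endpoints were interpolated linearly between bracketing concentrations, or set to the highest concentration if not reached. The concentration for 50% growth inhibition is given as GI50. TGI marks complete inhibition of growth.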

Take `CC1(C)C(=O)/C(=C\c2cccnc2)C[C@]2(C)[C@H]3CC[C@@H]4[C@H]5[C@H](C(=O)/C=C/c6cccnc6)CC[C@]5(C(=O)O)CC[C@@]4(C)[C@]3(C)CC[C@@H]12`: the GI50 in the assay with EKVX NSCLC was 2.11 µM; in the assay with NCI-H522 lung, 2.35 µM; in the assay on NCI/ADR-RES ovarian, 3.08 µM; in the assay on OVCAR-3 ovarian it was 1.76 µM; with OVCAR-5 ovarian, 2.44 µM; with OVCAR-8 ovarian it was 3.5 µM. In addition, the GI50 was 2.41 µM in the assay with PC-3 prostate, 2.22 µM in the assay on SF-295 CNS and 3.82 µM in the assay on SK-OV-3 ovarian. Also, the TGI in the assay with EKVX NSCLC is 4.92 µM; in the assay on NCI-H522 lung, 5.99 µM; with NCI/ADR-RES ovarian, greater than 100 µM; in the assay on OVCAR-3 ovarian it was 3.42 µM; with OVCAR-5 ovarian it was 4.88 µM; in the assay on OVCAR-8 ovarian, greater than 100 µM. Further, the figures for the TGI in the assay with PC-3 prostate, with SF-295 CNS and in the assay with SK-OV-3 ovarian were 8.58 µM, 5.59 µM and 14.5 µM, respectively.

For `S=c1ssc(N2CCOCC2)c1Cl`, the GI50 in the assay with EKVX NSCLC was 58 µM; in the assay on NCI-H522 lung, 20.4 µM; in the assay on NCI/ADR-RES ovarian it was 43.9 µM; in the assay with OVCAR-3 ovarian, 39.3 µM; in the assay on OVCAR-5 ovarian, greater than 100 µM; with OVCAR-8 ovarian, greater than 100 µM. The GI50 was 40.2 µM with PC-3 prostate, 25.8 µM in the assay with SF-295 CNS and 28.1 µM in the assay on SK-OV-3 ovarian. Also, the TGI in the assay on EKVX NSCLC was greater than 100 µM; in the assay with NCI-H522 lung, 55.4 µM; in the assay on NCI/ADR-RES ovarian, greater than 100 µM; in the assay on OVCAR-3 ovarian, greater than 100 µM; in the assay with OVCAR-5 ovarian, greater than 100 µM; in the assay on OVCAR-8 ovarian, greater than 100 µM. The TGI in the assay with PC-3 prostate, in the assay with SF-295 CNS and with SK-OV-3 ovarian was greater than 100 µM throughout.

Turning to `COC(=O)Nc1nc2ccc(C3(c4ccc(F)cc4)OCCO3)cc2[nH]1`, the GI50 with IGROV1 ovarian is 1.29 µM; in the assay on NCI-H522 lung it was 0.222 µM; in the assay on NCI/ADR-RES ovarian, 0.28 µM; in the assay with OVCAR-3 ovarian, 0.301 µM; in the assay with OVCAR-5 ovarian, 0.614 µM; with OVCAR-8 ovarian, 0.527 µM. For the same molecule, the results for the GI50 in the assay on PC-3 prostate, in the assay on SF-295 CNS and in the assay on SK-OV-3 ovarian were 0.341 µM, 0.272 µM and 0.587 µM, respectively. Moreover, the TGI in the assay on IGROV1 ovarian was greater than 100 µM; in the assay on NCI-H522 lung, 2.65 µM; in the assay on NCI/ADR-RES ovarian, greater than 35.4 µM; in the assay on OVCAR-5 ovarian, greater than 100 µM; with OVCAR-8 ovarian, greater than 100 µM; with PC-3 prostate, greater than 100 µM. Moreover, the TGI with SF-295 CNS and in the assay with SK-OV-3 ovarian was greater than 100 µM throughout.

For `Cc1ccc(N=C/C=C(\Nc2ccc(C)cc2)c2ccc(Cl)cc2)cc1`, the GI50 is 14 µM in the assay on EKVX NSCLC; 21.9 µM in the assay on NCI-H522 lung; 5.1 µM with NCI/ADR-RES ovarian; 8.06 µM in the assay with OVCAR-3 ovarian; 24.4 µM in the assay with OVCAR-5 ovarian; 14.6 µM in the assay with OVCAR-8 ovarian. The GI50 was 26.8 µM with PC-3 prostate, 5.55 µM in the assay with SF-295 CNS and 21 µM in the assay on SK-OV-3 ovarian. For the same molecule, the TGI with EKVX NSCLC worked out at 36.2 µM; with NCI-H522 lung, 70 µM; in the assay on NCI/ADR-RES ovarian, 22.1 µM; with OVCAR-3 ovarian, 77.9 µM; in the assay with OVCAR-5 ovarian it was 94.9 µM; in the assay on OVCAR-8 ovarian it was 53.6 µM. Besides, the concentration for total growth inhibition (TGI) with PC-3 prostate is greater than 100 µM; in the assay with SF-295 CNS it was 21.9 µM; with SK-OV-3 ovarian, greater than 100 µM.

`CCc1nc2cc(F)c(/C=C/C(=O)NO)cc2c(=O)n1CCc1ccccc1`: the 50% growth inhibitory concentration (GI50) in the assay on EKVX NSCLC is 0.387 µM; in the assay on NCI-H522 lung it was 0.171 µM; with NCI/ADR-RES ovarian, 0.284 µM; in the assay with OVCAR-3 ovarian it was 0.323 µM; in the assay with OVCAR-5 ovarian, 0.402 µM; with OVCAR-8 ovarian it was 0.287 µM. In addition, the GI50 is 0.526 µM with PC-3 prostate, 0.234 µM in the assay on SF-295 CNS and 0.263 µM in the assay with SK-OV-3 ovarian. Besides, the TGI worked out at 15.7 µM with EKVX NSCLC; 0.392 µM in the assay on NCI-H522 lung; 0.982 µM in the assay on NCI/ADR-RES ovarian; 10.8 µM in the assay on OVCAR-3 ovarian; 17.6 µM in the assay on OVCAR-5 ovarian; 2.24 µM in the assay with OVCAR-8 ovarian. For the same molecule, the TGI was 59.4 µM in the assay on PC-3 prostate, 0.617 µM in the assay on SF-295 CNS and 0.787 µM with SK-OV-3 ovarian.

On to `O=C1c2cccnc2-c2nc(-c3ccc(Cl)cc3)cc3c2c1nc1ccccc13`, for which the GI50 with EKVX NSCLC was greater than 100 µM; in the assay with IGROV1 ovarian it was 32.3 µM; in the assay on NCI-H522 lung it was 21 µM; in the assay on NCI/ADR-RES ovarian it was 55.2 µM; in the assay with OVCAR-3 ovarian, 24 µM; with OVCAR-5 ovarian it was greater than 100 µM. Also, the values for the GI50 in the assay with OVCAR-8 ovarian, in the assay on PC-3 prostate and with SF-295 CNS were 98.4 µM, 47 µM and 22.9 µM, respectively. The TGI was greater than 100 µM with EKVX NSCLC; greater than 100 µM in the assay on IGROV1 ovarian; greater than 100 µM in the assay on NCI-H522 lung; greater than 100 µM in the assay on NCI/ADR-RES ovarian; 75 µM in the assay with OVCAR-3 ovarian; greater than 100 µM in the assay with OVCAR-5 ovarian. Besides, the TGI in the assay with OVCAR-8 ovarian, in the assay with PC-3 prostate and with SF-295 CNS was greater than 100 µM each time.

`OCC1OC(n2cnc3c2NC=NC[C@H]3O)C(Cl)C1O` (stereo partly specified): the TGI in the assay with EKVX NSCLC, in the assay with IGROV1 ovarian, with NCI-H522 lung, in the assay on NCI/ADR-RES ovarian, in the assay on OVCAR-3 ovarian and in the assay on OVCAR-5 ovarian was greater than 100 µM each time. Further, the TGI with OVCAR-8 ovarian, with PC-3 prostate and in the assay with SF-295 CNS was greater than 100 µM in each case.
